Measured values taken from ChEMBL document CHEMBL3046008, “Phenolics and their antifungal role in grapevine wood decay: focus on the Botryosphaeriaceae family” (J Agric Food Chem, 2012).
The source made the active and inactive calls. No cut-off for these calls is given here.

Assays:
[1] = tested on: Phaeoacremonium minimum; assay: Antifungal activity against Togninia minima SO21 assessed as susceptibility at 500 uM measured after 1 to 10 days; assay type: functional, organism-based
[2] = tested on: Neofusicoccum parvum; assay: Antifungal activity against Neofusicoccum parvum assessed as growth inhibition at 500 uM measured after 1 to 10 days relative to control; assay type: functional
[3] = tested on: Diplodia seriata; assay: Antifungal activity against Diplodia seriata assessed as growth inhibition at 500 uM measured after 1 to 10 days relative to control; assay type: functional
[4] = tested on: Eutypa lata; assay: Antifungal activity against Eutypa lata BX1-10 assessed as growth inhibition at 500 uM measured after 1 to 10 days relative to control; assay type: functional
[5] = tested on: Phaeomoniella chlamydospora; assay: Antifungal activity against Phaeomoniella chlamydospora assessed as growth inhibition at 500 uM measured after 1 to 10 days relative to control; assay type: functional
[6] = tested on: Diplodia seriata; assay: Antifungal activity against Diplodia seriata assessed as growth inhibition measured after 1 to 10 days; assay type: functional, organism-based
[7] = tested on: Neofusicoccum parvum; assay: Antifungal activity against Neofusicoccum parvum assessed as growth inhibition measured after 1 to 10 days; assay type: functional, organism-based
[8] = tested on: Diplodia seriata; assay: Antifungal activity against Diplodia seriata assessed as mycelium denser around the initial plug and colonizing measured after 2 days by macroscopic analysis; assay type: functional, organism-based
[9] = tested on: Eutypa lata; assay: Antifungal activity against Eutypa lata BX1-10 assessed as growth inhibition measured after 1 to 10 days; assay type: functional, organism-based
[10] = tested on: Diplodia seriata; assay: Antifungal activity against Diplodia seriata assessed as mycelium seemed to be halted measured after 2 days environmental scanning electron microscopy; assay type: functional, organism-based
[11] = tested on: Eutypa lata; assay: Induction of Eutypa lata BX1-10 growth at 500 uM; assay type: functional, organism-based

| SMILES | Activity [1] | growth inhibition (GI) [2] | growth inhibition (GI) [3] | other results |
| --- | --- | --- | --- | --- |
| O=C(O)/C=C/c1ccc(O)c(O)c1 | inactive |  |  |  |
| Oc1ccc([C@H]2Oc3cc(O)cc(/C=C/c4ccc5c(c4)[C@@H](c4cc(O)cc6c4[C@H](c4cc(O)cc(O)c4)[C@@H](c4ccc(O)cc4)O6)[C@H](c4ccc(O)cc4)O5)c3[C@@H]2c2cc(O)cc(O)c2)cc1 | inactive | Active | Active |  |
| COc1cc(C(=O)O)cc(OC)c1O | inactive |  |  |  |
| O=c1c(O)c(-c2ccc(O)cc2)oc2cc(O)cc(O)c12 | inactive |  |  | growth inhibition (GI) [4]: inactive |
| Oc1ccc(/C=C/c2cc(O)cc(O)c2)cc1 [RESVERATROL] | inactive |  |  | fold change (FC) [4]: 1.7; fold change (FC) [2]: 1.1; fold change (FC) [3]: 1.6 |
| COc1cc(/C=C/C(=O)O)ccc1O [FERULATE] | inactive |  |  | fold change (FC) [4]: 2.2; fold change (FC) [5]: 1.4; fold change (FC) [2]: 1.5; fold change (FC) [3]: 1.6 |
| Oc1ccc([C@H]2c3c(O)cc(O)cc3[C@H]3c4c(cc(O)cc4[C@@H]2O)O[C@@H]3c2ccc(O)cc2)cc1 | inactive | Active | Active |  |
| OC[C@H]1O[C@@H](Oc2cc(O)cc(/C=C/c3ccc(O)cc3)c2)[C@H](O)[C@@H](O)[C@@H]1O | inactive | Active | Active |  |
| COc1cc(/C=C/C(=O)O)cc(OC)c1O | inactive |  |  |  |
| Oc1cc(O)c2c(c1)O[C@H](c1ccc(O)c(O)c1)[C@@H](O)C2 | inactive |  |  |  |
| Oc1ccc(/C=C/c2cc(O)cc3c2[C@@H](c2cc(O)cc(O)c2)[C@H](c2ccc(O)cc2)O3)cc1 [EPSILON-VINIFERIN] | inactive | Active | Active | IC50 [6]: 260 µM |
| COc1cc(C(=O)O)ccc1O | inactive |  |  |  |
| O=C(O[C@@H]1Cc2c(O)cc(O)cc2O[C@@H]1c1ccc(O)c(O)c1)c1cc(O)c(O)c(O)c1 | inactive |  |  |  |
| O=C(O)c1cc(O)c(O)c(O)c1 | inactive |  |  |  |
| Oc1cc(O)cc(/C=C/c2ccc(O)c(O)c2)c1 [PICEATANNOL] | inactive | Active | Active | IC50 [6]: 299 µM |
| COc1cc(/C=C/c2ccc(O)cc2)cc(OC)c1 [PTEROSTILBENE] | inactive | Active | Active | IC50 [7]: 250 µM; Activity [8]: Active; IC50 [9]: 251 µM; IC50 [6]: 163 µM; Activity [10]: Active |
| O=C(O)/C=C/c1ccc(O)cc1 | inactive |  |  |  |
| O=C(/C=C/c1ccc(O)c(O)c1)O[C@@H]1C[C@](O)(C(=O)O)C[C@@H](O)[C@H]1O | inactive |  |  |  |
| O=c1c(O)c(-c2ccc(O)c(O)c2)oc2cc(O)cc(O)c12 | inactive |  |  | Activity [11]: Active |
| Oc1ccc([C@H]2c3c(O)cc(O)cc3[C@H]3c4c(cc(O)cc4[C@@H]2c2cc(/C=C/c4cc(O)cc5c4[C@H](c4cc(O)cc(O)c4)[C@@H](c4ccc(O)cc4)O5)ccc2O)O[C@@H]3c2ccc(O)cc2)cc1 | inactive | Active | Active |  |
| Oc1cc(O)c2c(c1)O[C@H](c1ccc(O)c(O)c1)[C@H](O)C2 | inactive |  |  |  |
